In article PMC6530601, “Rapid and Scalable Plant-Based Production of a Potent Plasmin Inhibitor Peptide” (Frontiers in Plant Science, 2019):
Bridge positions count the residues as written; N and C are the ends. Peptide text beside a SMILES is read from it.

Key:
native human plasmin [1] = biological target: T1, native human plasmin (Homo sapiens, UniProt P00747); conditions: substrate of plasmin assay; determination not described, no reference given; cited from earlier work
T1 construct: incubated with 1 nM native human plasmin (Sigma-Aldrich); purchased Sigma-Aldrich
Protocol: (§1) A serial dilution of plant-derived [T4Y,I7R]SFTI-1 was incubated with 1 nM native human plasmin (Sigma-Aldrich) for 30 min in assay buffer (0.1 M Tris-HCl, pH 8.0, 0.1 M NaCl, and 0.005% Triton X-100) in low binding 96-well plates (Corning). […] The inhibition constant (Ki) was determined from three independent assays by the Morrison equation and non-lin ...

native human plasmin [2] = biological target: T1, native human plasmin; assay: Plasmin inhibitory assay (chromogenic peptide substrate); format: biochemical; conditions: plant-derived peptide; 1 nM native human plasmin, 30 min pre-incubation, 0.1 M Tris-HCl, pH 8.0, 0.1 M NaCl, 0.005% Triton X-100; 100 μM Acetyl-Arg-Met(sulphone)-Tyr-Arg-pNA, 405 nm over 7 min; Morrison equation; n = 3 independent assays; read-out: inhibition constant (Ki)
Protocol: as §1, with “non-linear regression using GraphPad Prism 6.” for “non-lin ...”

T1 sequence (P00747 581-810 limits assumed): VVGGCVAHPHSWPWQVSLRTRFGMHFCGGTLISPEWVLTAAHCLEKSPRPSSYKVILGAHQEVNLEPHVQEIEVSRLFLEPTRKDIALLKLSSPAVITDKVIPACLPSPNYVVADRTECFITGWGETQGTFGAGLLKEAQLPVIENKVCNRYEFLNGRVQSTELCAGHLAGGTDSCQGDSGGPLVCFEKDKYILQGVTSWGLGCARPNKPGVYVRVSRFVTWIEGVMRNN
T1 sequence (P00747 97-580 partner limits assumed): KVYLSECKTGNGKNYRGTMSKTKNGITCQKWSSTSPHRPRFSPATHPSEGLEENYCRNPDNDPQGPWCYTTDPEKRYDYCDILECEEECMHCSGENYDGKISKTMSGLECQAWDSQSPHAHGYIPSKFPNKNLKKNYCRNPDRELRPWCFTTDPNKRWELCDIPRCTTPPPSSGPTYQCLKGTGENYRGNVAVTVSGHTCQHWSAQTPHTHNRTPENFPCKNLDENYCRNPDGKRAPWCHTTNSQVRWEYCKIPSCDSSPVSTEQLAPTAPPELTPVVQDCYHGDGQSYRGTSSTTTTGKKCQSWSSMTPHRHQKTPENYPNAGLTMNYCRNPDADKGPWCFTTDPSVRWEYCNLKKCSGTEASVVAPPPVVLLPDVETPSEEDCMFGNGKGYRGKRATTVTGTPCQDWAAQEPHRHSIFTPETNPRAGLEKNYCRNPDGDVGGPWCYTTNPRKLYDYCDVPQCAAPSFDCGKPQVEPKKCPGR

Ki (native human plasmin [2]) | Compound | Km (native human plasmin [1])
– | Acetyl-Arg-Met(sulphone)-Tyr-Arg-pNA [colorimetric peptide substrate of plasmin] | 23.5 µM
0.025 ± 0.004 nM | CC[C@H](C)[C@@H]1NC(=O)[C@@H]2CCCN2C(=O)[C@@H]2CCCN2C(=O)[C@H](CCCNC(=N)N)NC(=O)[C@H](CO)NC(=O)[C@H](CCCCN)NC(=O)[C@H](Cc2ccc(O)cc2)NC(=O)[C@@H]2CSSC[C@H](NC1=O)C(=O)N[C@@H](Cc1ccccc1)C(=O)N1CCC[C@H]1C(=O)N[C@@H](CC(=O)O)C(=O)NCC(=O)N[C@@H](CCCNC(=N)N)C(=O)N2 [[T4Y,I7R]SFTI-1] (cyclo(CFPDGRCYKSRPPI); disulfide 1-7) | –
